Data taken from patent publication US20050202424A1, “Regulators of biofilm formation and uses thereof” (priority 2001, published 2005).
≈ marks a conversion by molar mass, not a printed value.

Columns and labels:
[1] = system: PA14 RSCV; test: Resistance of PA14 RSCV colonies to antibiotics on plates; type: cell-based, Pseudomonas aeruginosa; conditions: for resistance of PA14 RSCV colonies: 8 individual colonies
Protocol: To induce such phenotypic variants, an overnight culture of P. aeruginosa strain PA14 (UCBPP-PA14) was inoculated onto Luria-Bertani (LB) containing 200 μg/ml of kanamycin, incubated at 37° C. for 48 hours, at which time, antibiotic resistant rough small variants were isolated. Antibiotic resistant colonies arose at a frequency of 10^−6-10^−7. […] In addition to being resistant to kanamycin, (up to 40 times the susceptibility level of the wild-type), 8 individual PA14 RSCV colonies tested were also resistant to amikacin (30 μg/ml), carbenicillin (300 μg/ml), gentamicin (30 μg/ml), tobramycin (10 μg/ml), and tetracycline (150 μg/ml). Consistent with this latter result, antibiotic resistant variants were also obtained at frequencies of about 10^−7 by plating overnight cultures of PA14 on media containing similar concentrations of the antibiotics mentioned above.

[2] = system: P. aeruginosa small colony variants in CF sputum samples; test: Antibiotic resistant small colony variants in CF sputum samples plated on cetrimide agar with and without antibiotics; type: cell-based, Pseudomonas aeruginosa
Protocol: Five CF sputum samples from the Clinical Microbiology Laboratory at Massachusetts General Hospital were suspended in 5 ml of 10 mM MgSO4. Serial dilutions of the samples were then plated onto cetrimide agar plates with and without antibiotics. The plates were screened for the presence of P. aeruginosa after 24 and 48 hours of incubation at 37° C. The identity of the colonies was later confirmed by probing colony lifts with the exotoxin A gene from P. aeruginosa. To this end, the EcoRI-HindIII fragment of plasmid pRGI containing the exoA gene (Samadpour et al., J. Clin. Microbiol. 26:2319-23, 1988) was gel isolated and labeled using a random priming kit (Boehringer, Mannheim, Indianapolis, Ind.). Colonies were transferred to nylon membranes and hybridizations were performed according to the manufacturer's recommendations (NEN Research Products, Boston, Mass.). Identification of colonies carrying the exoA gene was then performed using a Phosphorimager (Amersham Pharmacia Biotech Inc., Piscataway, N.J.).
The presence of P. aeruginosa antibiotic resistant small colony variants was determined by plating CF sputum samples on cetrimide agar with and without the indicated antibiotics. […]

[3] = system: PA14 and PA14 RSCV biofilms; test: Biofilm resistance to tobramycin in flow chambers (viable biomass by CSLM of GFP-tagged cells); type: cell-based, Pseudomonas aeruginosa; conditions: continuous flow of tobramycin 200 μg/ml on established biofilms
Protocol: To determine whether the antibiotic resistant phenotype of PA14 RSCV is associated with altered biofilm formation, PA14 RSCV was cultured under biofilm-forming conditions as follows. For biofilm characterization, PA14 RSCV biofilms were cultivated under continuous culture conditions in flow-chambers with channel dimensions of 12 by 52 by 2 mm. Flow media consisted of M63 supplemented with 0.5% casamino acids and 0.3% glucose. For measurement of biofilm resistance, bacteria were cultivated in flow-chambers with channel dimensions of 1 by 40 by 4 mm (Stovall Inc., Greensboro, N.C.). In this case, flow media consisted of FAB medium (0.1 mM CaCl2, 0.01 mM Fe-EDTA, 0.15 mM NH4SO4, 0.33 mM Na2HPO4, 0.2 mM KH2PO4 and 1 mM MgCl2) supplemented with casamino acids (0.5%) and sodium citrate (10 mM). Flow-cells in both cases were inoculated with 100-fold dilutions of overnight cultures of PA14 and PA14 RSCV carrying the green fluorescent protein (GFP) in plasmid SMC21, a derivative of pSMC2 (Bloemberg et al., Appl. Environ. Microbiol. 63: 4543-4551, 1997). […] The volume (in μm^3) of individual biofilm structures was determined from serial sections using ImageSpace software (Molecular Dynamics, Sunnyvale, Calif.).
Viable biomass was measured by CSLM analysis of GFP-tagged PA14 and PA14 RSCV cells using GFP expression as a viability marker as described previously (FIG. 1E).

[4] = system: wild-type PA14; test: Minimal inhibitory concentration of kanamycin in liquid culture; type: cell-based; conditions: Pseudomonas aeruginosa; PA14 in M63 liquid medium; read-out: concentration of kanamycin required to inhibit growth (MIC)
Protocol: Phenotypic variation is a common phenomenon in Gram-negative bacteria that often involves environmentally regulated changes in observable phenotypes produced by modifications in surface components. The effect that different environmental stimuli had on the appearance of kanamycin-resistant phenotypic variants was examined. Bacteria were grown in LB broth, or in supplemented LB with appropriate antibiotics at the indicated temperature with aeration. […] Moreover, the frequency of variants increased 200-fold when plates were incubated at 25° C. compared to 37° C. (FIG. 2A). Finally, a dramatic 10^6-fold increase was obtained on minimal M63 salts as compared to LB medium (FIG. 2A). Minimal salt media consisted of M63 supplemented with 0.3% glucose, 1 mM MgSO4, and 0.5% casamino acids. Importantly, there was a correlation between the frequency of appearance of kanamycin resistant variants on plates and minimal inhibitory concentrations (MICs) of kanamycin in liquid culture for the wild-type PA14 using the culture conditions described above (FIG. 2B).

[5] = Sample 5, patient on Amikacin(IV)/Ceftazidime(IV)
[6] = Sample 38, patient on Tobramycin (I)/Levofloxacin
[7] = Sample 41, no antibiotic treatment
[8] = Sample 42, no antibiotic treatment
[9] = Sample 43, no antibiotic treatment

Row | Molecule | resistance of PA14 RSCV colonies ([1]; gentamicin 30 μg/ml) | Variants resistant to antibiotic (%) [2, 5] | Variants resistant to antibiotic (%) [2, 6] | Variants resistant to antibiotic (%) [2, 7] | Variants resistant to antibiotic (%) [2, 8] | Variants resistant to antibiotic (%) [2, 9] | resistance of PA14 RSCV colonies ([1]; carbenicillin 300 μg/ml) | resistance of PA14 RSCV colonies ([1]; tobramycin 10 μg/ml) | resistance of PA14 RSCV biofilm to tobramycin treatment versus wild-type PA14 biofilm [3] | resistance of PA14 RSCV colonies ([1]; amikacin 30 μg/ml) | resistance to kanamycin relative to the susceptibility level of the wild-type ([1]; PA14 RSCV colonies) | MIC [4]
1 | gentamicin | resistant | 100% | 100% | 10% | 6.6% | 0.5% | – | – | – | – | – | –
2 | CC1(C)S[C@@H]2[C@H](NC(=O)C(C(=O)O)c3ccccc3)C(=O)N2[C@H]1C(=O)O (some centres unmarked) [carbenicillin] | – | – | – | – | – | – | resistant | – | – | – | – | –
3 | NC[C@H]1O[C@H](O[C@H]2[C@H](O)[C@@H](O[C@H]3O[C@H](CO)[C@@H](O)[C@H](N)[C@H]3O)[C@H](N)C[C@@H]2N)[C@H](N)C[C@@H]1O [tobramycin] | – | 50% | 100% | 0.10% | 0% | 0.5% | – | resistant | more resistant | – | – | –
4 | NCC[C@H](O)C(=O)N[C@@H]1C[C@H](N)[C@@H](O[C@H]2O[C@H](CN)[C@@H](O)[C@H](O)[C@H]2O)[C@H](O)[C@H]1O[C@H]1O[C@H](CO)[C@@H](O)[C@H](N)[C@H]1O [amikacin] | – | 100% | 100% | 15% | 5% | 0.2% | – | – | – | resistant | – | –
5 | NC[C@H]1O[C@H](O[C@H]2[C@H](O)[C@@H](O[C@H]3O[C@H](CO)[C@@H](O)[C@H](N)[C@H]3O)[C@H](N)C[C@@H]2N)[C@H](O)[C@@H](O)[C@@H]1O [kanamycin] | – | – | – | – | – | – | – | – | – | – | up to 40 times | 475 µg/mL (≈ 980 µM)
6 | CN(C)[C@@H]1C(O)=C(C(N)=O)C(=O)[C@@]2(O)C(O)=C3C(=O)c4c(O)cccc4[C@@](C)(O)[C@H]3C[C@@H]12 [tetracycline] | – | 30% | 32% | 0% | 0% | – | – | – | – | – | – | –
